Experimental data: paper PMC10517971, “An inverse agonist of orphan receptor GPR61 acts by a G protein-competitive allosteric mechanism” (Nature Communications, 2023)

Biological target: BRD4 (Homo sapiens, UniProt O60885)
Assay: Bromodomain-Containing Protein 4 (BRD4) fluorescence polarization Binding Assay
Experimental: 45 37 °C for 30 min (DAT) or 60 min (NET and SER T). The plate is transferred to the FLIPR Tetra®
46 instrument and the fluorescence of each well was measured (Ex 470- 495 […]).
47 The level of fluores cenc e measured dire ctly relates to the level of uptake of the dye labelled amine,
48 with a reduction in levels being related to an inhibition of the respective transporter.
49 Phosphodiesterase Assays
50 The phosphodiesteras e (P DE) assays m easure the conversion of 3’, 5 ’ -[3H ] cAMP to 5’-[3H] AMP
51 (for PDE 3A1 and 4D3) or 3’, 5’-[3H] cGMP to 5’-[3H] GMP (for 5A1) by the relevant PDE
52 enzyme subtype. Yttrium silicate (YSi) scintillation proximity (SPA) beads bind selectively to 5’-
53 [3H] AMP or 5’-[3H] GMP, with the magnitude of radioactive counts being directly related to
54 PDE enzymatic activity. The ass ay was performed in white walled op aque b ottom 384-well plates.
55 Test compound (1 µL) in dimethyl sulfoxide was added to each well. Enzyme solution was then […]
60 Waltham, MA). Followin g an additional 8 h incubation period the plates were read on a MicroBeta […]
71 temperature fluorescence polarization measurements were made using an Envision plate reader […]
76 of the product color, measured at 405 nm, is proportionate to the enzyme activity in the sample. […]
81 read at the 20 min time point. […]

`CCOc1cc(C)nc(N(CCOC)S(=O)(=O)c2ccc(NCc3c(F)cncc3F)nc2OC)n1` [Compound 1] gave an IC50 greater than 25 µM.
